The values that follow come from patent US20240018166A1, “SULFONYL UREA NLRP3 INFLAMMASOME INHIBITORS” (Venatorx Pharmaceuticals, Inc., priority 2020, published 2024).

The test system of series [1] is IL-1β. As to the kind of experiment: IL-1β inhibition assay (ELISA/HTRF of culture supernatants). Type of series: cell-based. Conditions: Homo sapiens, PMA-differentiated THP-1 cells, tested 10 μM to 0.003 μM. The procedure, abridged:
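PMA-differentiated THP-1 cells treated at final compound concentrations of 10 μM to 0.003 μM; supernatant IL-1β quantified by Quantikine ELISA or HTRF. Background-subtracted values expressed as % of vehicle controls; EC50 from four-parameter variable-slope nonlinear regression.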

Series [2] is described as follows: MTT cell viability assay, THP-1 cells. The format is cell-based. The note with it: human, unstimulated THP-1 cells, read-out: THP-1 Cytotoxicity CC50. The procedure, abridged: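 Unstimulated THP-1 (5×10^4/well) or HepG2 (5×10^3/well) cells exposed to compound for 72 h, then MTT 3 h at 37 °C. Formazan solubilised overnight in DMF/acetic acid/SDS (THP-1) or in DMSO (HepG2); absorbance 570 nm. CC50 by four-parameter fit of percent vehicle control.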

Series [3] is described as follows: MTT cell viability assay, HepG2 cells. Conditions: human, read-out: HepG2 Cytotoxicity CC50. The format is cell-based. The protocol:
In order to assess the cytotoxicity of the compounds, an MTT cell viability assay was performed in either unstimulated THP-1 or HepG2 cells as follows. 5×10^4 THP-1 or 5×10^3 HepG2 cells were seeded into each well of a 96-well plate in 90 μL of media. Compounds were added to cells as described for the IL-10 assay and returned to the incubator for an additional 72 hours. Next, 25 μL of MTT solution (5 mg/mL in sterile PBS) was added to each well. Plates were incubated for 3 hours at 37° C., 5% CO2. Next, for THP-1 cells, 100 μl of MTT solubilization solution (40% Dimethylformamide, 2% glacial acetic acid, 16% sodium dodecyl sulfate) was then added to each well and plates were incubated at room temperature in the dark overnight. For HepG2 cells, media was aspirated, 50 μL of DMSO was added and plates were mixed briefly with an orbital plate shaker. Absorbance at 570 nm was measured using a Perkin-Elmer EnVision plate reader.
Absorbance values were converted to percentage of vehicle-treated controls. Data was then analyzed using a non-linear regression (variable slope (four-parameter)) equation in GraphPad Prism 7.0. […]

Series [4] addresses T1, IL-1 (Homo sapiens, UniProt P01584).
T1 construct: host or cells: patients (in vivo)
The note with it: cited from earlier work.

Some results are limits rather than exact numbers.

On to `O=C(Nc1c2c(cc3c1CCC3)CCC2)NS(=O)(=O)c1ccc2c(c1)C(O)OB2O` (centres unmarked) [Example 54, N-((1,2,3,5,6,7-hexahydro-s-indacen-4-yl)carbamoyl)-1,3-dihydroxy-1,3-dihydrobenzo[c][1,2]oxaborole-5-sulfonamide], for which the EC50 in series [1] was above 10 µM. Moreover, the CC50 at 72 h in series [2] and in series [3] was above 10 µM in each case.
Compound `COc1cc(-c2ccc3c(c2NC(=O)NS(=O)(=O)c2ccc4c(c2)C(C)OB4O)CCC3)ccn1` (centres unmarked) [Example 55, 1-hydroxy-N-((5-(2-methoxypyridin-4-yl)-2,3-dihydro-1H-inden-4-yl)carbamoyl)-3-methyl-1,3-dihydrobenzo[c][1,2]oxaborole-5-sulfonamide] displayed a 50% effective concentration (EC50) in series [1] below 1 µM. Besides, the cytotoxic concentration (CC50) at 72 h in series [2] and in series [3] was above 10 µM throughout.
As to `CC(C)c1cc(C#N)c(F)c(C(C)C)c1NC(=O)NS(=O)(=O)c1ccc2c(c1)C(C)OB2O` (centres unmarked) [Example 56, N-((4-cyano-3-fluoro-2,6-diisopropylphenyl)carbamoyl)-1-hydroxy-3-methyl-1,3-dihydrobenzo[c][1,2]oxaborole-5-sulfonamide], the EC50 in series [1] is 1 to 10 µM. Also, the half-maximal cytotoxic concentration (CC50) at 72 h in series [2] and in series [3] was above 10 µM each time.
Compound `CC1(C)OB(O)c2ccc(S(=O)(=O)NC(=O)Nc3c4c(cc5c3CCC5)CCC4)cc21` [Example 57, N-((1,2,3,5,6,7-hexahydro-s-indacen-4-yl)carbamoyl)-1-hydroxy-3,3-dimethyl-1,3-dihydrobenzo[c][1,2]oxaborole-5-sulfonamide] had an EC50 in series [1] of 1 to 10 µM. The CC50 at 72 h in series [2] and in series [3] was above 10 µM throughout.
As for `CC(CCB1O[C@@H]2C[C@@H]3C[C@@H](C3(C)C)[C@]2(C)O1)n1ccc(S(=O)(=O)NC(=O)Nc2c3c(cc4c2CCC4)CCC3)n1` (stereo partly drawn) [Example 60, N-((1,2,3,5,6,7-hexahydro-s-indacen-4-yl)carbamoyl)-1-(4-((3aS,4S,6S,7aR)-3a,5,5-trimethylhexahydro-4,6-methanobenzo[d][1,3,2]dioxaborol-2-yl)butan-2-yl)-1H-pyrazole-3-sulfonamide], the EC50 in series [1] is 1 to 10 µM. Further, the CC50 at 72 h in series [2] and in series [3] was above 10 µM each time.
In turn, `CC(CCn1ccc(S(=O)(=O)NC(=O)Nc2c3c(cc4c2CCC4)CCC3)n1)CB1OC(C)(C)C(C)(C)O1` (centres unmarked) [Example 61, N-((1,2,3,5,6,7-hexahydro-s-indacen-4-yl)carbamoyl)-1-(3-methyl-4-(4,4,5,5-tetramethyl-1,3,2-dioxaborolan-2-yl)butyl)-1H-pyrazole-3-sulfonamide] had an EC50 in series [1] below 1 µM. For the same compound, the CC50 at 72 h in series [2] and in series [3] was above 10 µM throughout.
Consider `CC(C)(CCn1ccc(S(=O)(=O)NC(=O)Nc2c3c(cc4c2CCC4)CCC3)n1)B1OC(C)(C)C(C)(C)O1` [Example 62, N-((1,2,3,5,6,7-hexahydro-s-indacen-4-yl)carbamoyl)-1-(3-methyl-3-(4,4,5,5-tetramethyl-1,3,2-dioxaborolan-2-yl)butyl)-1H-pyrazole-3-sulfonamide], for which the concentration giving a half-maximal response (EC50) in series [1] is below 1 µM. In addition, the CC50 at 72 h in series [2] and in series [3] was above 10 µM throughout.
Take “canakinumab: the neutralizing IL-10 antibody canakinumab (anti-IL-1, Novartis)”: in series [4] (CANTOS trial), the “incidence of fatal infection” value is “higher incidence of fatal infection”. The “reduction in total cancer mortality (mostly lung cancer) compared to placebo” value in series [4] (high-dose) is reported as above 50%.
